From patent US7662361B2, “Methods and compositions for modulating drug activity through telomere damage” (priority 1999, dated 2010)

Key:
Type in all cases: cell-based, human
FaDu cells [1] = experiment: Cell growth of hTR antisense transfected cells; conditions: stably transfected FaDu cells
Source text: Transfection procedures. Transfection of the antisense construct used an IPTG-inducible mammalian expression system, i.e., the LacSwitch II system (Stratagene), which consists of a recombinant vector (i.e., pOPRSVI) and an operator vector (i.e., pCMVLacI). The pOPRSVI vector contains both ampicillin and G418^r resistance genes which facilitate the selection of positive clones from E. Coli and eukaryotic cells. The 8 unique cloning sites of the vector facilitate bi-directional insertion of a cDNA to produce either sense or antisense transcripts. The Lac repressor vector (pCMVLacI) produces the Lac repressor protein, which binds to and inhibits the operator sequence in the pOPRSVI vector and thereby inhibits the expression of the inserted gene. IPTG decreases the binding affinity of the Lac repressor protein to the operator sequence and triggers transcription and expression of the inserted gene. The transfection procedures consisted of stable transfection of FaDu cells with first, the pCMVLacI vector, and then second, the pOPRSVI/MCS vector which contained an antisense or sense hTR fragment. Transfection was performed using Lipofectamine-mediated gene transfer. The selection of the clones expressing the pCMVLacI repressor construct was performed using […] of the antibiotic hygromycin. The selection of the clones expressing the pOPRSVI vector using G418. […]

FaDu cells [2] = experiment: TALA telomere length in hTR antisense transfected cells
telomerase (hTR) = experiment: Improved TRAP telomerase activity in hTR antisense transfected cells
Experimental: First, the extraction procedures in the conventional TRAP were not sufficient to completely lyse the cell nuclei and the extraction efficiency varied with the ratio between the volume of the extraction buffer and the volume of cells. […] For the preparation of cell and tissue extracts, cells and tissue were harvested, washed, and stored at −70° C. Cells were then lysed in a SDS-based lysis buffer (10 mM Tris.HCl, pH 7.5, 1 mM MgCl2, 1 mM EGTA, 0.1 mM phenylmethylsulfonyl fluoride, 5 mM β-mercaptoethanol, 0.1% CHAPS, and 10% glycerol), on ice for 10 min. To this mixture, three volumes of CHAPS-based buffer (10 mM Tris-HCl, pH 7.5, 1 mM MgCl2, 1 mM EGTA, 0.1 mM phenylmethylsulfonyl fluoride, 5 mM β-mercaptoethanol, 0.5% CHAPS, and 10% glycerol) were added and kept on ice for 5 min. SDS is a strong detergent which can completely lyse the cell including the nucleus. […] The protein concentration of the supernatant was determined using Bicinchoninic Acid Kit (Sigma, St Louis, Mo.). […] Samples with equal amounts of protein (1-2 μg) were analyzed by TRAP. In this assay, the enzyme activity is measured as the synthesis of repeating telomere hexamers (TTAGGG; SEQ ID NO: 10). […]

[3] = system: telomerase activity of FaDu cells; experiment: TRAP telomerase activity in drug-treated cells; conditions: cisplatin treatment, 48 to 96 hr
Experimental: For the preparation of cell and tissue extracts, cells and tissue were harvested, washed, and stored at −70° C. Cells were then lysed in a SDS-based lysis buffer (10 mM Tris.HCl, pH 7.5, 1 mM MgCl2, 1 mM EGTA, 0.1 mM phenylmethylsulfonyl fluoride, 5 mM β-mercaptoethanol, 0.1% CHAPS, and 10% glycerol), on ice for 10 min. To this mixture, three volumes of CHAPS-based buffer (10 mM Tris-HCl, pH 7.5, 1 mM MgCl2, 1 mM EGTA, 0.1 mM phenylmethylsulfonyl fluoride, 5 mM β-mercaptoethanol, 0.5% CHAPS, and 10% glycerol) were added and kept on ice for 5 min. […] For the extraction of tissues, tissues were homogenized in SDS-based lysis buffer with a Kontes pellet pestle (Fisher, Pittsburgh, Pa.), mixed with three volumes of CHAPS-based buffer, and centrifuged were centrifuged at 8,000 g for 15 min at 4° C. The supernatant was kept at −20° C. The protein concentration of the supernatant was determined using Bicinchoninic Acid Kit (Sigma, St Louis, Mo.). The protein concentration was adjusted to 0.5 μg/μl with CHAPS-based buffer. Samples with equal amounts of protein (1-2 μg) were analyzed by TRAP. […] The TRAP reaction mixture contained 2-4 μl of protein extract, 20 mM Tris.HCl (pH 8.3), 1.5 mM MgCl2, 63 mM KCl, 0.005% Tween-20, 1 mM EGTA, 50 μM dNTPs, 0.1 μg of TS primer, 0.1 mg/ml bovine serum albumin. The mixture was incubated at 30° C. for 30 min, then at 90° C. for 2 min.
This was accomplished by using phenol/chloroform extraction of the cell lysate, as follows. One μg of tRNA and 0.1 ng internal control template were added to the reaction solution after primer extension. The total volume of the mixture was brought to 100 μl with water, mixed with an equal volume of buffer saturated phenol (Life Technology) and then centrifuged at 18,000 g for 3 min, at room temperature. The top aqueous layer (90 μl) was carefully transferred to a new tube and mixed with an equal volume of chloroform:isoamyl alcohol (24:1) solution and centrifuged at 18,000 g for 3 min, at room temperature. The top aqueous layer (80 μl) was again transferred to a new tube and the nucleotides were precipitated with 0.2 volume of 3 M sodium acetate (pH 5.3) and 3 volume of 100% ethanol at −70° C. for at least 2 hr. The mixture was centrifuged at 18,000 g for 15 min at 4° C. […]
The template for the internal standard was amplified by PCR and purified by spin columns (QIAquick PCR purification kit, Qiagen, Valencia, Calif.). The concentration was determined by a spectrophotometer.
PCR was performed on the GeneAmp PCR system 2400 (Perkin Elmer) and initiated by 1 cycle at 94° C. for 3 min, 50° C. for 4 min, and 68° C. for 2 min, then 25 rounds at 94° C. for 30 sec, 50° C. for 30 sec, and 68° C. for 90 sec, followed by 68° C. for 10 min. […] The gel was then dried and the amplification products were detected. […]

FaDu cells [4] = experiment: Cell detachment from the growth surface
Experimental: Upon drug treatment, the supernatant along with two subsequent Versene rinses, which contained the detached cells, were collected. […] These samples were centrifuged at 1500 rpm for 10 min and the resulting cell pellets were resuspended in 2 ml of culture media. The cell number in the detached and attached fractions were counted using a Coulter counter (Coulter Electronic, Inc., Hialeah, Fla.).
Treatment with the above agents was initiated after cells were allowed to attach to the growth surface in culture flasks. On the day of experiments, the culture medium was removed and replaced with drug-containing medium. […] For d4T, two concentrations, 20 μM and 40 μM were used.
Agent effect was measured in three ways, i.e., enumeration of the number of cells that remained attached in culture flask, enumeration of the number of cells that detached from the growth surface, and by measuring changes in apoptosis. […] The drug-induced detachment of cells from the growth surface was determined by counting the attached and detached cells.

## CC(C)S[C@@H]1O[C@H](CO)[C@H](O)[C@H](O)[C@H]1O [+IPTG]
FaDu cells [1]
  Doubling time: 23 h
FaDu cells [2]
  Terminal restriction fragment: 2.91 kb
Telomerase (hTR)
  telomerase activity: 98.9 % of control

## N.N.[Cl][Pt][Cl] [cisplatin]
[3]
  telomerase activity: 50 % of the baseline level

## Cc1cn([C@H]2C=C[C@@H](CO)O2)c(=O)[nH]c1=O [d4T, 3′-deoxy-2′,3′-didehydrothymidine]
FaDu cells [4]; d4T 20 μM and 40 μM
  detachment of cells from the growth surface: < 8%
FaDu cells [4]; d4T 20 or 40 μM
  effect of addition of d4T to paclitaxel on detached cell fraction: significantly enhanced the detached cell fraction
